Reference: patent US9040261B2, “Compounds as L-cystine crystallization inhibitors and uses thereof” (NEW YORK UNIVERSITY, priority 2009, dated 2015)
Where a name gives a salt, the structure may show the parent alone. Marks after values point to notes of the source that are not given here.

Tests used:
[1] = Crystal size and habit by optical microscopy and SEM after bulk crystallization with additive; conditions: for L-cystine crystal habit in the presence of additive: hexagonal platelets without additive
Method: Various proteins, poly-amino acids, and molecular mimics of L-cystine were examined as additives. The aforementioned procedure for hexagonal platelet crystallization was repeated. Following the 75 min cooling period, prior to any observable crystallization, the additive was added to the supersaturated L-cystine solution to the desired concentration. The container was sealed and stored for 72 hours at room temperature without stirring, after which the precipitate was collected by vacuum filtration (Whatman Grade 1 filters, >11 μm pores) and were air dried prior to analysis. Crystallization without additive was performed in an identical manner for comparison using a control solution from the same batch. The mass yields of L-cystine crystals were obtained by dividing the mass of L-cystine crystals (collected from growth solution by filtration) by the mass of L-cystine added in the growth solution. The crystals were isolated with 11 μm-pore filters, which were regarded as sufficiently small for reliable capture of the crystals (optical micrographs reveal that the size of crystals was always greater than 50 μm
An Orion 3 Star pH meter (Thermo Electron Corp.) with Orion 9157BNMD probe was used to measure the pH of L-cystine solutions. Crystal morphology was measured with a Leitz ERGOLUZ optical microscope and a Hitachi 3500 scanning electron microscopy. A thin coating of gold (2 nm) was sputtered on SEM samples and images were acquired at low voltage (2-5 kV) to minimize sample melting. ^1H NMR spectra were recorded using a Bruker AVANCE 400 spectrometer and were routinely run using broadband decoupling. Chemical shifts (δ), expressed in ppm, are referenced to the corresponding residual nuclei in deuterated solvent (D2O). Powder X-ray diffraction (XRD) patterns of isolated crystals were acquired with a Panalytical XPert PRO MPD using a Bragg-Brentano geometry with fixed slits at power settings of 45 kV and 40 mA. A CuKa radiation (0.154 nm) source was used with a 1 degree fixed divergence slit (10 mm beam mask) for incident X-rays and a 1 degree anti-scatter slit Ni filter ( 1/16 degree receiving slit) for diffracted X-rays.

[2] = Bulk crystallization of L-cystine in the presence of additives (mass yield); conditions: for influence on L-cystine growth: polymers and proteins with proximal carboxylate and amine groups
Method: Alternately, the hexagonal crystals can be obtained by crystallization performed near neutral pH (Sa) The hexagonal form was crystallized from a supersaturated L-cystine solution prepared by adding 70 mg of L-cystine to 100 mL of deionized water (3 mM), and heating under reflux at 100° C. for 20 min with stirring to completely dissolve L-cystine. […] This concentration was used for bulk crystallization studies in the presence of additives so that a measurable amount of bulk crystals could be obtained in a reasonable time. The solution was then allowed to cool slowly with stirring for 75 min. 30 mL aliquots were transferred to separate glass containers, which were then sealed to prevent evaporation and exposure to airborne particulates and stored for 72 hours at room temperature without stirring. […] The crystals retrieved in this manner were used for AFM studies by mounting individual crystals according to the procedure described below.
Various proteins, poly-amino acids, and molecular mimics of L-cystine were examined as additives. The aforementioned procedure for hexagonal platelet crystallization was repeated. Following the 75 min cooling period, prior to any observable crystallization, the additive was added to the supersaturated L-cystine solution to the desired concentration. […] Crystallization without additive was performed in an identical manner for comparison using a control solution from the same batch. The mass yields of L-cystine crystals were obtained by dividing the mass of L-cystine crystals (collected from growth solution by filtration) by the mass of L-cystine added in the growth solution.
Additives chosen for these studies were various proteins, poly-amino acids, and molecular mimics of L-cystine (see Table 1). The above procedure for hexagonal platelet crystallization was repeated until completion of the 75 min cooling period, at which point 29.5 g of solution was transferred to a 100 mL beaker containing 0.5 g of separately prepared additive solution to yield net concentrations of 2 mg/L additive and 0.7 g/L L-cystine. Additive solutions were replaced with deionized water of equivalent volume for control measurements. […]
L-cystine bulk crystallization was investigated in the presence of various polymers, urinary constituents, fish antifreeze proteins (AFPs), and L-cystine derivatives (i.e. structural mimics of L-cystine), which were analyzed as possible growth inhibitors of hexagonal L-cystine. The potency of each additive was assessed by comparing the difference in crystal yield (Table 1), which is equal to the mass of crystals formed in the presence of 2 mg/L additive (isolated with […]) divided by the total mass of L-cystine (700 mg/L).

[3] = AFM step velocity and hillock imaging with L-cystine diesters under continuous flow; conditions: 0.015 mM inhibitor, 2 mM L-cystine
Method: Atomic force microscopy was performed with a Digital Instruments (Santa Barbara, Calif.) Nanoscope Ma Multimode system. All measurements were performed in a cell designed to contain liquids for in situ imaging, including step velocity measurements. All measurements were performed in contact mode using Veeco NP_B Si3N4 tips on silicon nitride cantilevers with a spring constant of 0.12N/m (triangular, 196 μm length, 41 μm width). L-cystine crystals (hexagonal form) were transferred onto an AFM specimen disk coated with partially cured (1 hr) UV-curable optical cement (Type SK-9, EMS Acquisition Corp.) by gently pressing the disk against hexagonal platelets collected by filtration (Whatman Nuclepore membrane, 8 μm). The (001) faces of the hexagonal plates naturally aligned parallel with the specimen disk such that the velocity of the equivalent {100} steps could be measured readily by AFM. The partially cured polymer with the adhered crystals was cured completely by additional UV radiation (2 hrs) prior to analysis. The mounted L-cystine crystals were etched slightly by immersion in deionized water for 30 sec at 60° C. to remove amorphous deposits or impurities that may be present on the surface. Step velocities on the hexagonal L-cystine crystals were measured by AFM using a fluid cell containing an aqueous solution, supersaturated with L-cystine (2 mM), introduced to the cell via a syringe. Step velocities were determined by measuring the distance of the steps from a reference point, usually the dislocation core, in consecutive deflection images acquired at periodic intervals, ranging from 9-14 sec. Measurements were acquired under continuous flow of fresh solution in order to maintain constant supersaturation and additive concentration. […] The step velocities, which correspond to the crystal growth rates, were measured with and without inhibitor for each pair.

[4] = 10 mg/L L-cysteine methylester, 700 mg/L L-cystine
[5] = 2 mg/L additive, 0.7 g/L L-cystine (pH 6.8), no additive 80, approximate error ±8%

COC(=O)[C@@H](N)CS.Cl [L-cysteine methyl ester, L-cysteine methyl ester hydrochloride, reference compound]
needle length [1, 4]: < 50 μm | needle width [1, 4]: < 5 μm | L-cystine crystal habit in the presence of additive [1]: needles | Yield (%) = (collected mass by filtration, >11 μm)/(total mass added) × 100% ([2]; 10 mg/L additive, 0.7 g/L L-cystine, no additive 80±8%, hydrochloride): 32%

CC(C)OC(=O)[C@@H](N)CSSC[C@H](N)C(=O)OC(C)C [L-CDIE, L-Cystine Di-Isopropyl Ester]
order of step roughening, corresponding to the trend in inhibition [3]: L-CDME>L-CDEE>L-CDIE>L-CDTE

Osteopontin (bovine): Osteopontin, extracted and purified from bovine milk, contains 7 wt % Ca2+ ions
Yield (%) = (collected mass by filtration, >11 μm)/(total mass added) × 100% [2, 5]: 52% | influence on L-cystine growth ([2]; Table 1): negligible influence

Desialylated Tamm-Horsfall protein: native THP desialylated by treatment with neuraminidase (50% reduction of carbohydrate content)
Yield (%) = (collected mass by filtration, >11 μm)/(total mass added) × 100% [2, 5]: 41%

Chondroitin sulfate
Yield (%) = (collected mass by filtration, >11 μm)/(total mass added) × 100% [2, 5]: 64%

Poly-L-lysine [reference compound]
Yield (%) = (collected mass by filtration, >11 μm)/(total mass added) × 100% [2, 5]: 64% | influence on L-cystine growth ([2]; Table 1): negligible influence

CC(C)(C)SSC[C@H](N)C(=O)O [S-tert-butylmercapto-L-cystine, 5-tert-butylmercapto-L-cysteine, reference compound]
Yield (%) = (collected mass by filtration, >11 μm)/(total mass added) × 100% [2, 5]: 45%

O=C(O)CCSSCCC(=O)O [3,3′-Dithiodiproprionic acid, 3,3′-dithiodipropionic acid, reference compound]
Yield (%) = (collected mass by filtration, >11 μm)/(total mass added) × 100% [2, 5]: 72%

CC(C)(C)OC(=O)[C@@H](N)CSSC[C@H](N)C(=O)OC(C)(C)C [L-CDTE, Cystine Di-t-Butyl Ester]
order of step roughening, corresponding to the trend in inhibition [3]: L-CDME>L-CDEE>L-CDIE>L-CDTE

CCOC(=O)[C@@H](N)CSSC[C@H](N)C(=O)OCC [L-CDEE, Cystine Diethyl Ester]
order of step roughening, corresponding to the trend in inhibition [3]: L-CDME>L-CDEE>L-CDIE>L-CDTE

Transferrin: apo-transferrin (human, >98%)
Yield (%) = (collected mass by filtration, >11 μm)/(total mass added) × 100% [2, 5]: 56%

Poly-L-aspartate [reference compound]
Yield (%) = (collected mass by filtration, >11 μm)/(total mass added) × 100% [2, 5]: 44%

N[C@@H](CS)C(=O)O [L-cysteine, reference compound]
L-cystine crystal habit in the presence of additive [1]: Hexagonal L-cystine platelets | Yield (%) = (collected mass by filtration, >11 μm)/(total mass added) × 100% ([2]; 10 mg/L additive, 0.7 g/L L-cystine, no additive 80±8%): 91% | influence on mass yield ([2]; bulk crystallization, Table 1): did not influence the yield

Tamm-Horsfall protein: Tamm-Horsfall protein obtained from a human sample with no history of kidney stone disease
Yield (%) = (collected mass by filtration, >11 μm)/(total mass added) × 100% [2, 5]: 69% | influence on L-cystine growth ([2]; Table 1): negligible influence

O=C(O)CC(O)(CC(=O)O)C(=O)O [Citrate, sodium citrate (dihydrate), reference compound]
Yield (%) = (collected mass by filtration, >11 μm)/(total mass added) × 100% ([2]; pH 6.8): 74%

COC(=O)[C@@H](N)CSSC[C@H](N)C(=O)O [CME, L-Cystine Methyl Ester]
needle volume less than hexagonal platelets [1]: ~100 times | L-cystine crystal habit in the presence of additive [1]: tapered hexagonal crystals | Yield (%) = (collected mass by filtration, >11 μm)/(total mass added) × 100% [2, 5]: 92* % | CME concentration needed for crystal growth inhibition similar to CDME ([2]; bulk crystallization): more than twice that of CDME

Poly-L-glutamate [reference compound]
Yield (%) = (collected mass by filtration, >11 μm)/(total mass added) × 100% [2, 5]: 56% | influence on L-cystine growth ([2]; Table 1): negligible influence

CC(C)(SSC(C)(C)[C@@H](N)C(=O)O)[C@H](N)C(=O)O [D-penicillamine disulfide, reference compound]
Yield (%) = (collected mass by filtration, >11 μm)/(total mass added) × 100% [2, 5]: 65%

Poly-L-arginine [reference compound]
Yield (%) = (collected mass by filtration, >11 μm)/(total mass added) × 100% [2, 5]: 34%
